{"source": "patent US10821069B2", "about": "“Aqueous extract of truffle and cosmetic composition thereof” (ISP INVESTMENTS LLC, priority 2014, dated 2020)", "tested_on": "Normal human keratinocytes", "assay": "Mitochondrial ROS production after rotenone-induced production of ROS (MITOSOX staining)", "type": "cell-based", "conditions": "1 μM Rotenone for 4 hours, no extract", "method": "The purpose of this study is to determine the influence of the Truffle extract according to example 2 regarding the mitochondrial Reactive oxygen Species (ROS) production. Mitochondrial ROS were induced by rotenone, an electron transport chain complex inhibitor.\nMethod: Normal human keratinocytes extracted from a […] […] abdominal skin were seeded in 8 well culture PERMANOX® plastic slides (Thermo Scientific, Waltham, Mass., USA). Cells were pre-treated with two applications per day of the Truffle extract of example 2 (at 0.01% and 0.05%) for 48 h in KSFM medium (Gibco, Auckland, NZ) supplemented with 50 μg·ml-1 bovine pituitary extract (Gibco), 5 ng·ml-1 human recombinant EGF (Gibco) and 0.1 mg·ml-1 PRIMOCIN™ (Invivogen, San Diego, Calif., USA). Then cells were submitted to 1 μM Rotenone application for 4 hours. Immediately after the stress, culture medium was replaced with fresh KSFM for 1 hour. At the end of incubation, a 5 μM MITOSOX® (Life Technologies, Carlsbad, Calif., USA) solution was incubated further for 20 min at 37° C. in 5% CO2 atmosphere. […] Digital images were acquired with an inverted Zeiss Axiovert 200M microscope (Zeiss, Oberkochen, Germany) with a 20× objective. […] Statistical significance of the data was assessed by paired Student's t-test (n=3, p<0.05 was considered significant; p<0.01 as very significant and p<0.005 as highly significant)."}
{"smiles": "C=C(C)[C@H]1Cc2c(ccc3c2O[C@@H]2COc4cc(OC)c(OC)cc4[C@@H]2C3=O)O1", "note": "[rotenone]", "values": [{"measurement": "increase in ROS production in keratinocytes compared to untreated control", "value": 45, "unit": "%"}]}
